Test results taken from patent US9663496B2, “AMPK-activating heterocyclic compounds and methods for using the same” (Rigel Pharmaceuticals, Inc., priority 2010, dated 2017).

target: AMPK; assay: AMPK activation, enzyme-linked immunosorbent assay; type: biochemical; details: EC50 for AMPK activation, ELISA
Outline: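 Activator screen performed per well-known kit methods.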

Structure (SMILES)	EC50 [µM]
COc1ccc(OC2CCN(C(=O)c3ccc(C(=O)NC4CCN(Cc5ccc(C#N)cc5)CC4)cn3)CC2)c(NC(C)=O)c1 [Compound 383, 6-(4-(2-acetamido-4-methoxyphenoxy)piperidine-1-carbonyl)-N-(1-(4-cyanobenzyl)piperidin-4-yl)nicotinamide]	> 10
COc1ccc(OC2CCN(C(=O)c3ccc(C(=O)NC4CCN(Cc5ccc(C#N)cc5)CC4)cn3)CC2)c(N)c1 [Compound 384, 6-(4-(2-amino-4-methoxyphenoxy)piperidine-1-carbonyl)-N-(1-(4-cyanobenzyl)piperidin-4-yl)nicotinamide]	0.5 to 1
COc1ccc(OC2CCN(C(=O)c3ccc(C(=O)NC4CCN(Cc5ccc(C#N)cc5)CC4)cn3)CC2)c(N(C)C)c1 [Compound 385, N-(1-(4-cyanobenzyl)piperidin-4-yl)-6-(4-(2-(dimethylamino)-4-methoxyphenoxy)piperidine-1-carbonyl)nicotinamide]	> 10
N#Cc1ccc(CN2CCC(NC(=O)c3ccc(C(=O)NC4CCN(Cc5ccc(C#N)cc5)CC4)nn3)CC2)cc1 [Compound 386, N3,N6-bis(1-(4-cyanobenzyl)piperidin-4-yl)pyridazine-3,6-dicarboxamide]	> 10
COc1ccc(OC2CCN(C(=O)c3ccc(C(=O)NC4CCN(Cc5ccc(C#N)cc5)CC4)cn3)CC2)c(NS(C)(=O)=O)c1 [Compound 389, N-(1-(4-cyanobenzyl)piperidin-4-yl)-6-(4-(4-methoxy-2-(methylsulfonamido)phenoxy)piperidine-1-carbonyl)nicotinamide]	1 to 5
COc1ccc(OC2CCN(C(=O)c3ccc(C(=O)NC4CCN(Cc5ccc(C#N)cc5)CC4)cn3)CC2)c(NC(=O)CCOCCOCCOCCOCCNC(=O)CCCC[C@@H]2SC[C@@H]3NC(=O)N[C@@H]32)c1 [Compound 394, N-(1-(4-cyanobenzyl)piperidin-4-yl)-6-(4-(4-methoxy-2-(17-oxo-21-((3aS,4S,6aR)-2-oxohexahydro-1H-thieno[3,4-d]imidazol-4-yl)-4,7,10,13-tetraoxa-16-azahenicosanamido)phenoxy)piperidine-1-carbonyl)nicotinamide]	> 10
CS(=O)(=O)c1ccc(OC2CCN(C(=O)c3ccc(C(=O)NC4CCN(Cc5ccc(F)cc5)CC4)cn3)CC2)cc1 [Compound 396, N-(1-(4-fluorobenzyl)piperidin-4-yl)-6-(4-(4-(methylsulfonyl)phenoxy)piperidine-1-carbonyl)nicotinamide]	1 to 5
COc1ccc(C(=O)C2CCN(C(=O)c3ccc(C(=O)NC4CCN(Cc5ccc(N)cc5)CC4)cn3)CC2)cc1 [Compound 400, N-(1-(4-aminobenzyl)piperidin-4-yl)-6-(4-(4-methoxybenzoyl)piperidine-1-carbonyl)nicotinamide]	1 to 5
COc1ccc(C(=O)C2CCN(C(=O)c3ccc(C(=O)NC4CCN(Cc5ccc(NC(C)=O)cc5)CC4)cn3)CC2)cc1 [Compound 401, N-(1-(4-acetamidobenzyl)piperidin-4-yl)-6-(4-(4-methoxybenzoyl)piperidine-1-carbonyl)nicotinamide]	1 to 5
COc1ccc(C(=O)C2CCN(C(=O)c3ccc(C(=O)NC4CCN(Cc5ccc(NC(=O)CCOCCOCCOCCNC(=O)CCCC[C@@H]6SC[C@@H]7NC(=O)N[C@@H]76)cc5)CC4)nc3)CC2)cc1 [Compound 403, 5-(4-(4-methoxybenzoyl)piperidine-1-carbonyl)-N-(1-(4-(14-oxo-18-((3aS,4S,6aR)-2-oxohexahydro-1H-thieno[3,4-d]imidazol-4-yl)-4,7,10-trioxa-13-azaoctadecanamido)benzyl)piperidin-4-yl)picolinamide]	> 10
O=C(NC1CCN(c2ccc(F)cc2)CC1)c1ccc(C(=O)N2CCN(Cc3ccc(F)cc3)CC2)nc1 [Compound 404, 6-(4-(4-fluorobenzyl)piperazine-1-carbonyl)-N-(1-(4-fluorophenyl)piperidin-4-yl)nicotinamide]	1 to 5
CC(=O)Nc1ccc(OC2CCN(C(=O)c3ccc(C(=O)NC4CCN(Cc5ccc(F)cc5)CC4)cn3)CC2)cc1 [Compound 406, 6-(4-(4-acetamidophenoxy)piperidine-1-carbonyl)-N-(1-(4-fluorobenzyl)piperidin-4-yl)nicotinamide]	0.5 to 1
N#Cc1ccc(CN2CCC(NC(=O)c3ccc(C(=O)N4CCC(Oc5ccc(NC(=O)C6CC6)cc5)CC4)nc3)CC2)cc1 [Compound 409, N-(1-(4-cyanobenzyl)piperidin-4-yl)-6-(4-(4-(cyclopropane-carboxamido)phenoxy)piperidine-1-carbonyl)nicotinamide]	< 0.5
N#Cc1ccc(CN2CCC(NC(=O)c3ccc(C(=O)N4CCC(Oc5ccc(SC(F)(F)F)cc5)CC4)cn3)CC2)cc1 [Compound 410, N-(1-(4-cyanobenzyl)piperidin-4-yl)-5-(4-(4-(trifluoromethylthio)phenoxy)piperidine-1-carbonyl)picolinamide]	< 0.5
CC(=O)Nc1cccc(OC2CCN(C(=O)c3ccc(C(=O)NC4CCN(Cc5ccc(C#N)cc5)CC4)cn3)CC2)c1 [Compound 411, 6-(4-(3-acetamidophenoxy)piperidine-1-carbonyl)-N-(1-(4-cyanobenzyl)piperidin-4-yl)nicotinamide]	1 to 5
COc1ccc(CN2CCC(NC(=O)c3ccc(C(=O)N4CCC(Oc5cccc(NC(C)=O)c5)CC4)nc3)CC2)cc1 [Compound 412, 6-(4-(3-acetamidophenoxy)piperidine-1-carbonyl)-N-(1-(4-methoxybenzyl)piperidin-4-yl)nicotinamide]	1 to 5
CC(=O)Nc1cccc(OC2CCN(C(=O)c3ccc(C(=O)NC4CCN(Cc5ccc(F)cc5)CC4)cn3)CC2)c1 [Compound 413, 6-(4-(3-acetamidophenoxy)piperidine-1-carbonyl)-N-(1-(4-fluorobenzyl)piperidin-4-yl)nicotinamide]	1 to 5

Continued, values first:

EC50 [µM]	Structure (SMILES)
< 0.5	O=C(NC1CCN(Cc2ccc(F)cc2)CC1)c1ccc(C(=O)N2CCC(C(=O)c3ccc(N4CCCC4)cc3)CC2)nc1 [Compound 381, N-(1-(4-fluorobenzyl)piperidin-4-yl)-6-(4-(4-(pyrrolidin-1-yl)benzoyl)piperidine-1-carbonyl)nicotinamide]
< 0.5	O=C(Nc1ccc(Oc2ccc(F)cc2)nc1)c1ccc(C(=O)N2CCC(C(=O)c3ccc(N4CCCC4)cc3)CC2)nc1 [Compound 382, N-(6-(4-fluorophenoxy)pyridin-3-yl)-6-(4-(4-(pyrrolidin-1-yl)benzoyl)piperidine-1-carbonyl)nicotinamide]
< 0.5	COc1ccc(C(=O)C2CCN(C(=O)c3ccc(C(=O)NC4CCN(Cc5ccc(C#N)cc5)CC4)nn3)CC2)cc1 [Compound 387, N-(1-(4-cyanobenzyl)piperidin-4-yl)-6-(4-(4-methoxybenzoyl)piperidine-1-carbonyl)pyridazine-3-carboxamide]
< 0.5	CC(=O)c1ccc(OC2CCN(C(=O)c3ccc(C(=O)NC4CCN(Cc5ccc(C#N)cc5)CC4)cn3)CC2)cc1 [Compound 390, 6-(4-(4-acetylphenoxy)piperidine-1-carbonyl)-N-(1-(4-cyanobenzyl)piperidin-4-yl)nicotinamide]
< 0.5	CC(=O)c1ccc(OC2CCN(C(=O)c3ccc(C(=O)NC4CCN(Cc5ccc(F)cc5)CC4)cn3)CC2)cc1 [Compound 391, 6-(4-(4-acetylphenoxy)piperidine-1-carbonyl)-N-(1-(4-fluorobenzyl)piperidin-4-yl)nicotinamide]
< 0.5	O=C(NC1CCN(Cc2ccc(F)cc2)CC1)c1ccc(C(=O)N2CCC(C(=O)c3ccc(-n4cccn4)cc3)CC2)nc1 [Compound 392, 6-(4-(4-(1H-pyrazol-1-yl)benzoyl)piperidine-1-carbonyl)-N-(1-(4-fluorobenzyl)piperidin-4-yl)nicotinamide]
< 0.5	N#Cc1ccc(CN2CCC(NC(=O)c3ccc(C(=O)N4CCC(C(=O)c5ccc(-n6cccn6)cc5)CC4)nc3)CC2)cc1 [Compound 393, 6-(4-(4-(1H-pyrazol-1-yl)benzoyl)piperidine-1-carbonyl)-N-(1-(4-cyanobenzyl)piperidin-4-yl)nicotinamide]
< 0.5	CC(=O)c1ccc(OC2CCN(C(=O)c3ccc(C(=O)Nc4ccc(Oc5ccc(F)cc5)nc4)cn3)CC2)cc1 [Compound 395, 6-(4-(4-acetylphenoxy)piperidine-1-carbonyl)-N-(6-(4-fluorophenoxy)pyridin-3-yl)nicotinamide]
< 0.5	CS(=O)(=O)c1ccc(OC2CCN(C(=O)c3ccc(C(=O)NC4CCN(Cc5ccc(C#N)cc5)CC4)cn3)CC2)cc1 [Compound 397, N-(1-(4-cyanobenzyl)piperidin-4-yl)-6-(4-(4-(methylsulfonyl)phenoxy)piperidine-1-carbonyl)nicotinamide]
< 0.5	CS(=O)(=O)c1ccc(OC2CCN(C(=O)c3ccc(C(=O)NC4CCC(Oc5ccc(C#N)cc5)CC4)cn3)CC2)cc1 (stereo not shown) [Compound 398, N-(4-(4-cyanophenoxy)cyclohexyl)-6-(4-(4-(methylsulfonyl)phenoxy)piperidine-1-carbonyl)nicotinamide]
< 0.5	CS(=O)(=O)c1ccc(OC2CCN(C(=O)c3ccc(C(=O)NC4CCN(Cc5ccc(C#N)cc5)CC4)nn3)CC2)cc1 [Compound 399, N-(1-(4-cyanobenzyl)piperidin-4-yl)-6-(4-(4-(methylsulfonyl)phenoxy)piperidine-1-carbonyl)pyridazine-3-carboxamide]
< 0.5	COc1ccc(N2CCC(NC(=O)c3ccc(C(=O)N4CCN(Cc5ccc(F)cc5)CC4)nc3)CC2)cc1 [Compound 405, 6-(4-(4-fluorobenzyl)piperazine-1-carbonyl)-N-(1-(4-methoxyphenyl)piperidin-4-yl)nicotinamide]
< 0.5	COc1ccc(CN2CCC(NC(=O)c3ccc(C(=O)N4CCC(Oc5ccc(NC(C)=O)cc5)CC4)nc3)CC2)cc1 [Compound 407, 6-(4-(4-acetamidophenoxy)piperidine-1-carbonyl)-N-(1-(4-methoxybenzyl)piperidin-4-yl)nicotinamide]
< 0.5	CC(=O)Nc1ccc(OC2CCN(C(=O)c3ccc(C(=O)Nc4ccc(Oc5ccc(F)cc5)nc4)nc3)CC2)cc1 [Compound 408, 5-(4-(4-acetamidophenoxy)piperidine-1-carbonyl)-N-(6-(4-fluorophenoxy)pyridin-3-yl)picolinamide]
